Experimental data published in ChEMBL document CHEMBL1201862, “PubChem BioAssay data set” (2004).
Each block holds one compound with its values, some of them ahead of it. Active and inactive are the calls of the source.

Tests used:
Albumin = Albumin (Bos taurus, UniProt P02769); assay: Counterscreen for inhibitors of T-cell receptor (TCR)-CD3 interaction: Fluorescence-based biochemical high throughput dose response assay to identify inhibitors of T-cell receptor (TCR)-CD3 interaction using a TAMRA-labeled BSA probe.; assay type: functional
Albumin, sequence (P02769 whole entry): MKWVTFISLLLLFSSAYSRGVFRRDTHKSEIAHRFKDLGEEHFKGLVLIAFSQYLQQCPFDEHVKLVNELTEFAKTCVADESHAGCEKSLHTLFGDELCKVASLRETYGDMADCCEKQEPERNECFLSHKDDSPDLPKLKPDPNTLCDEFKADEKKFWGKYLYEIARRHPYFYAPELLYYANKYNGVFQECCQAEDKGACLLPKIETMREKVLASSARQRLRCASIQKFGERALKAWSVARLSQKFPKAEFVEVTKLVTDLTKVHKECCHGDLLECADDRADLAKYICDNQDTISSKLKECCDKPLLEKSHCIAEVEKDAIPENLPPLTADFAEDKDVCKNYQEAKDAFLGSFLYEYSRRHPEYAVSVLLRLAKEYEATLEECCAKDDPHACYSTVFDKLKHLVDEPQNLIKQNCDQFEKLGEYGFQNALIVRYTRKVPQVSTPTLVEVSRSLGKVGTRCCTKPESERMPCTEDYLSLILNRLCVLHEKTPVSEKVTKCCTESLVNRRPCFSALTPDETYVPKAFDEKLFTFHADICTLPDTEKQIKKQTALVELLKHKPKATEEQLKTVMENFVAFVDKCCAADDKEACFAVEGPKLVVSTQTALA

Streptococcus = assay: GAS UMAA2166 growth inhibition – luminescence, BacTiterGlo, counter-screen for streptokinase expression inhibitor project, dose response (AID 1915); assay type: functional, organism-based;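 note: potency for reduction of bacterial viability or growth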
Caspase-3 = target: T1, Caspase-3 (Homo sapiens, UniProt P42574); assay: activation of caspase-3 zymogen – biochemical, absorbance, dose response (AID 489014)
T1 sequence (P42574 whole entry): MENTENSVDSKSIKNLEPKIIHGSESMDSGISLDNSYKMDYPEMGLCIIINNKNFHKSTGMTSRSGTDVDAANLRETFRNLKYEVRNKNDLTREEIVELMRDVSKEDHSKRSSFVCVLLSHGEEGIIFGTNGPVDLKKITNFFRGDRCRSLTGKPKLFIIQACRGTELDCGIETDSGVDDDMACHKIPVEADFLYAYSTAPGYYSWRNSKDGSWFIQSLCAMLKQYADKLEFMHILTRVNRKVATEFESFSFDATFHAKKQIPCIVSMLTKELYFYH

NS3 = NS3 (Hepatitis C virus, UniProt A3EZJ3); assay: PubChem AID 2173; design: species or system Hepacivirus hominis
NS3, sequence (A3EZJ3 whole entry): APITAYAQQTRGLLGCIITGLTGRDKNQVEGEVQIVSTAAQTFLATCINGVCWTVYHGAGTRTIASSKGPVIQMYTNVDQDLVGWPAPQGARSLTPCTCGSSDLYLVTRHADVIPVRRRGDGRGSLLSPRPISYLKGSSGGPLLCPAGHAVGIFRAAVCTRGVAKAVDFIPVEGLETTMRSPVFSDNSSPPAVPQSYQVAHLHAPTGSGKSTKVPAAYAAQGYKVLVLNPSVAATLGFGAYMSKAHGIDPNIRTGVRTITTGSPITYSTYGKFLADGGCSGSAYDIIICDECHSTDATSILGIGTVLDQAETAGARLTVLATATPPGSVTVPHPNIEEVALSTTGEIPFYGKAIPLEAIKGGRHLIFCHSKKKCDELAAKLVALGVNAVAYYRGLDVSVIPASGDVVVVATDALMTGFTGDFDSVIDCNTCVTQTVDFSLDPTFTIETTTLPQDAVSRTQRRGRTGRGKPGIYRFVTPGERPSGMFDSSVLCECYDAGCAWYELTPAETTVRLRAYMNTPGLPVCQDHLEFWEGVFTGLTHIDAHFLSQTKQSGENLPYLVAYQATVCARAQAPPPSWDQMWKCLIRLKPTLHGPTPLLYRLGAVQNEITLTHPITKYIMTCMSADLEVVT

[1] = test system: Streptococcus sp. 'group A'; assay: Streptococcus pyogenes SK(-)GAS viability under kanamycin – luminescence, BacTiterGlo, confirmation, counter-screen for streptokinase expression inhibitor project, dose response (AID 1900); assay type: functional, organism-based
INS1 = assay: INS-1E survival protection against cytokine death – cell-based, luminescence, retest, dose response (AID 449756); assay type: functional; conditions: Rattus norvegicus, INS1;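 note: cell death triggered by IL-1 beta plus TNF-alpha plus IFN-gamma mixture; protective hits raise ATP signal compared with cytokine alone wells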
Caspase-7 = Caspase-7 (Homo sapiens, UniProt P55210); assay: activation of caspase-7 zymogen – biochemical, absorbance, counter-screen for procaspase-3 activator project, dose response (AID 489013)
Caspase-7, sequence (P55210 24-198 limits assumed): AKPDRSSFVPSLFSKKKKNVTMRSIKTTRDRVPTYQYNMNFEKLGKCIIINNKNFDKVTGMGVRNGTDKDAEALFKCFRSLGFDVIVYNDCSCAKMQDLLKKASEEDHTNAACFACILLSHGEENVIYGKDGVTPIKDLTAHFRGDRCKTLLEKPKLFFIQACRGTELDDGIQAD
Caspase-7, sequence (P55210 207-303 limits assumed): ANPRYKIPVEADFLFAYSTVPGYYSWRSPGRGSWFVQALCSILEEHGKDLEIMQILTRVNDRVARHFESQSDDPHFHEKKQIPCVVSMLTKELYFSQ

[2] = target: T2, Short transient receptor potential channel 4 (Mus musculus, UniProt Q9QUQ5); assay: potentiation of DAMGO-evoked TRPC4 calcium signal – cell-based, HEK293 TRPC4/mu-opioid, Fluo-4 calcium, EC20 DAMGO, dose response (AID 434941); assay type: functional
T2 sequence (Q9QUQ5 whole entry): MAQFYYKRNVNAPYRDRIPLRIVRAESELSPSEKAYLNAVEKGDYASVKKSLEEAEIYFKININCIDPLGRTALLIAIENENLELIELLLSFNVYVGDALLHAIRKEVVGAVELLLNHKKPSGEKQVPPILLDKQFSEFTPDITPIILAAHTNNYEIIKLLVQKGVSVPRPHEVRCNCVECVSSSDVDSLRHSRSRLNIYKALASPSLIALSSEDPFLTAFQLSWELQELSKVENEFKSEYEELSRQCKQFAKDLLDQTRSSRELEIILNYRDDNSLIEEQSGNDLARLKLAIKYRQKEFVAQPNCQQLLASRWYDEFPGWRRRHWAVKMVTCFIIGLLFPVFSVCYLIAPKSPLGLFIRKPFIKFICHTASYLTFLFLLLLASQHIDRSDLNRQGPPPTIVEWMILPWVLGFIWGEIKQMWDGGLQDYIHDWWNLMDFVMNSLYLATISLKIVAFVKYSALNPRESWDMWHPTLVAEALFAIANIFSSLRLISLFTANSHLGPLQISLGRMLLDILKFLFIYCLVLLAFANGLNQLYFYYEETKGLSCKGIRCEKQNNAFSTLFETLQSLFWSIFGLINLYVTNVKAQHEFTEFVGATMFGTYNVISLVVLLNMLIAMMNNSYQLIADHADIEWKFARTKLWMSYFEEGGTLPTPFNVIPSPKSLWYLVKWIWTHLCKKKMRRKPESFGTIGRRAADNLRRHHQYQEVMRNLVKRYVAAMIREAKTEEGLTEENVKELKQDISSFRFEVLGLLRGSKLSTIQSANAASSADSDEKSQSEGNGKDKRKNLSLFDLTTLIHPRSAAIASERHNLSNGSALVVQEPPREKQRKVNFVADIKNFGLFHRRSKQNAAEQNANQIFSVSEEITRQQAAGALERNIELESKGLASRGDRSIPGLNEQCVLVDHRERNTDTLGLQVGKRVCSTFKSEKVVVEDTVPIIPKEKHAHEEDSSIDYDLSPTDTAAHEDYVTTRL

[3] = target: T3, Dual specificity protein phosphatase 6 (Rattus norvegicus, UniProt Q64346); assay type: functional;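 note: confirmatory in vitro dose-response testing of MKP-3 inhibition; recombinant His-tagged MKP-3 made in E. coli BL21 with OMFP substrate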
T3 sequence (Q64346 whole entry): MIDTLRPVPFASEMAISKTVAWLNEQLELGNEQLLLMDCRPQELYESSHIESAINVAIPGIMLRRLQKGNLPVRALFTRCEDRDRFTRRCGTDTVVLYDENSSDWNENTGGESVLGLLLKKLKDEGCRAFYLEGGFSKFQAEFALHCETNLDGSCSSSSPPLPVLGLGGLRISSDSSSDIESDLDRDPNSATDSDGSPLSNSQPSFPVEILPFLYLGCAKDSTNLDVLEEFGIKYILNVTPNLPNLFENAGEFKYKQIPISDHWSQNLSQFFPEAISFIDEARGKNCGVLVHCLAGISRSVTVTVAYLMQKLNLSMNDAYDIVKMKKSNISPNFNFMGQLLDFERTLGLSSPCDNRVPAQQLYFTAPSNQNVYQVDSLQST

[4] = target: T4, Tyrosine-protein phosphatase non-receptor type 22 (Homo sapiens, UniProt Q9Y2R2); assay: SAR LYP1 Fluorescent Assay using OMFP substrate for In Vitro dose response studies - Set 3. [Related pubchem assays (depositor defined):AID1779, AID1784, AID2140, AID2686]; assay type: functional
T4 sequence (Q9Y2R2 whole entry): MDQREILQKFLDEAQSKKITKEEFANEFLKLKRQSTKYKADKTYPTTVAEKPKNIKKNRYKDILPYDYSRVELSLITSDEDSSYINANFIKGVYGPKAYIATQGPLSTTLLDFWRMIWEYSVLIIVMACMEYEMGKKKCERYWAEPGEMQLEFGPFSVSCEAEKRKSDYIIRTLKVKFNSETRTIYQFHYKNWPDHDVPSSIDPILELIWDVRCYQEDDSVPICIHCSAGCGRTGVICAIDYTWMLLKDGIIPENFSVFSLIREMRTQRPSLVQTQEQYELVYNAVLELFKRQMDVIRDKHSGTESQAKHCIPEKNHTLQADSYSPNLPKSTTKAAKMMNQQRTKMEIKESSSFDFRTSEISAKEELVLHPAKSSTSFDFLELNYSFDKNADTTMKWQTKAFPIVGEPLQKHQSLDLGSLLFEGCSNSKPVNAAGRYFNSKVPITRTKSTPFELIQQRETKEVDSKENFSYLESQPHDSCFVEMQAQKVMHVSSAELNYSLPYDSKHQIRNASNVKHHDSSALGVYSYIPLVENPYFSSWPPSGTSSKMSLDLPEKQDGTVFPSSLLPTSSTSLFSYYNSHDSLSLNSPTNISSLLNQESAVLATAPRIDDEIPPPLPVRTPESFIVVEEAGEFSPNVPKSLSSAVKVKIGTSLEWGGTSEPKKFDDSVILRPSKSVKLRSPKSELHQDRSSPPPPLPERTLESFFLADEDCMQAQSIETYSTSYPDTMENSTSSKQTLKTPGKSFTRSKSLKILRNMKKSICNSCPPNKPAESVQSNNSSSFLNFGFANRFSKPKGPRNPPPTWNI

[5] = target: T4, Tyrosine-protein phosphatase non-receptor type 22; assay: inhibition of lymphoid tyrosine phosphatase LYP – biochemical, pCAP fluorogenic substrate, fluorescence, set 3, SAR follow-up (AID 449727); assay type: functional
[6] = target: T5, Tyrosine-protein phosphatase non-receptor type 7 (Homo sapiens, UniProt P35236); assay: redox-active compounds inhibiting HePTP phosphatase – biochemical, fluorescence, mechanism study (AID 2068); assay type: functional
T5 sequence (P35236 whole entry): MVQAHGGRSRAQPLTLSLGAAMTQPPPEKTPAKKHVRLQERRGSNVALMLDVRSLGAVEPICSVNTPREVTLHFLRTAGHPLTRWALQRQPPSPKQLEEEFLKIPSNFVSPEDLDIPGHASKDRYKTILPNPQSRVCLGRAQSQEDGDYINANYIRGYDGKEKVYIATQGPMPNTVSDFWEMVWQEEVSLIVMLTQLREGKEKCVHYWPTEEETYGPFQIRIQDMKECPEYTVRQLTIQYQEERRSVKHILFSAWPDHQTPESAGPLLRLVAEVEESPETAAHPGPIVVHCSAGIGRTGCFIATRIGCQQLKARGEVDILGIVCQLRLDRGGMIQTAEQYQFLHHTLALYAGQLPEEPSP

[7] = target: T6, Tyrosine-protein phosphatase non-receptor type 12 (Homo sapiens, UniProt Q05209); assay: SAR Selectivity Analysis of small molecule inhibitors of PEST using pCAP in a fluorescence assay. [Related pubchem assays (depositor defined):AID1779, AID1784, AID2135]; assay type: functional
T6 sequence (Q05209 whole entry): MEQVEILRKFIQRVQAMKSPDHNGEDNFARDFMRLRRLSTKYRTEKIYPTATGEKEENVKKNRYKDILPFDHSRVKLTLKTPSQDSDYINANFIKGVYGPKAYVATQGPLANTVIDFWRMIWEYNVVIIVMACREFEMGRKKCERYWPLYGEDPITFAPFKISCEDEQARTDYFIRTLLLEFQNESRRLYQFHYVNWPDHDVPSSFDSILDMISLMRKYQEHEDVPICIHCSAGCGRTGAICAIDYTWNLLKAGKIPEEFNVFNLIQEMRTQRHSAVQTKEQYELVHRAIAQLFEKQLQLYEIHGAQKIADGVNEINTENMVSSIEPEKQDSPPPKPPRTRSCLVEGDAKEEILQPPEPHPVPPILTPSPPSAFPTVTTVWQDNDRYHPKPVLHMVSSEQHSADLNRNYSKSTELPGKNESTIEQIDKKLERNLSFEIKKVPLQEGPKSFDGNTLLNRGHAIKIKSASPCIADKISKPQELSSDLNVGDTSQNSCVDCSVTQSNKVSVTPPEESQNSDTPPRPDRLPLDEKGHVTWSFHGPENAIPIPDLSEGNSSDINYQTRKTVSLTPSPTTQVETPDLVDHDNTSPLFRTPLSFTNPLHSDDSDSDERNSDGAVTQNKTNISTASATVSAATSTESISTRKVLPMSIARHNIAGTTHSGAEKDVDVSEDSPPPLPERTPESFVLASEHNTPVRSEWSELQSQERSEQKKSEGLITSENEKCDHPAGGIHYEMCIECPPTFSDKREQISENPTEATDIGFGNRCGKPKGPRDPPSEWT

[8] = target: Dual specificity protein phosphatase 3 (Homo sapiens, UniProt P51452); assay: SAR VHR1 Fluorescent Assay for In Vitro dose response studies Set 2. [Related pubchem assays (depositor defined):AID1654, AID1661, AID1878]; assay type: functional
Dual specificity protein phosphatase 3, sequence (P51452 whole entry): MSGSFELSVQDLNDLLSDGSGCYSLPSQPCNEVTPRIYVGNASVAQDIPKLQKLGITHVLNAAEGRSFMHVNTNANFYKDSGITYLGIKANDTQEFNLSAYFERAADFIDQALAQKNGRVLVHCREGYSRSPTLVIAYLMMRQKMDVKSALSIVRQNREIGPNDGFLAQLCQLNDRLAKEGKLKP

[9] = target: T7, Kappa-type opioid receptor (Homo sapiens, UniProt P41145); assay: SAR analysis of small molecule antagonists of the kappa opioid receptor via a luminescent beta-arrestin assay - Set 4. [Related pubchem assays (depositor defined):AID1777, AID1778, AID1785, AID1786, AID1966, AID2133, AID2136, AID2285]; assay type: functional
T7 sequence (P41145 whole entry): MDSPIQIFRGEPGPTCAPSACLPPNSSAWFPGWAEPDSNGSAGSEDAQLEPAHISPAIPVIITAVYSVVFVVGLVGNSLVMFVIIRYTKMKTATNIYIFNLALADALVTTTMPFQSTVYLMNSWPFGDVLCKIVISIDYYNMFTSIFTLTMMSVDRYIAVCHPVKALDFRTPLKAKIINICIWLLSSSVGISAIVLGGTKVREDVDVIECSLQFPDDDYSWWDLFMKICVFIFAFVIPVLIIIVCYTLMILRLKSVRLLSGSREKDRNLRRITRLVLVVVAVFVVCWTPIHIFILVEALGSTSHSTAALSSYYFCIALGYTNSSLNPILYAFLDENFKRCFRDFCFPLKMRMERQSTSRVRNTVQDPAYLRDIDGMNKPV

[10] = target: T7, Kappa-type opioid receptor; assay: SAR analysis of Antagonists of the Kappa Opioid Receptor (KOR) using an Image-Based Assay - Set 4. [Related pubchem assays (depositor defined):AID1777, AID1785]; assay type: functional
[11] = target: T7, Kappa-type opioid receptor; assay: SAR analysis of small molecule antagonists of the kappa opioid receptor via a luminescent beta-arrestin assay - Set 6. [Related pubchem assays (depositor defined):AID1777, AID1778, AID1785, AID1786, AID1966, AID2133, AID2136, AID2285]; assay type: functional
[12] = target: Delta-type opioid receptor (Homo sapiens, UniProt P41143); assay: SAR Analysis of Antagonists of the DOR Receptor using an Image-Based Assay - Set 3. [Related pubchem assays (depositor defined):AID1777, AID1785]; assay type: functional;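 note: U2OS cells expressing DOR1 and beta-arrestin GFP stimulated with 100 nM SNC80; imaging of GFP-tagged beta-arrestin moving into spots after receptor activation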
Delta-type opioid receptor, sequence (P41143 whole entry): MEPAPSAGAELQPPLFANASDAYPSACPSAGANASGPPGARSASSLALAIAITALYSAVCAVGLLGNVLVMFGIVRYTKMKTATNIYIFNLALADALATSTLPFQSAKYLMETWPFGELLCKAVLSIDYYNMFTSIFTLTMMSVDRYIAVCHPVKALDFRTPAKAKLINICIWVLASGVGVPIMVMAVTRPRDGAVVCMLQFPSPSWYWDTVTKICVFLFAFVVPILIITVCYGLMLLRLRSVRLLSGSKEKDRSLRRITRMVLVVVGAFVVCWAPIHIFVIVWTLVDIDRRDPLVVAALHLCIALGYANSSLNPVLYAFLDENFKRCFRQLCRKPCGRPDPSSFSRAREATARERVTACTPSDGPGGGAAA

Mu-type opioid receptor = Mu-type opioid receptor (Homo sapiens, UniProt P35372); assay: SAR Analysis of Antagonists of the MOR Receptor using an Image-Based Assay - Set 3. [Related pubchem assays (depositor defined):AID1777, AID1785, AID1786, AID1966, AID2133, AID2136, AID2284, AID2285, AID2420]; assay type: functional
Mu-type opioid receptor, sequence (P35372 whole entry): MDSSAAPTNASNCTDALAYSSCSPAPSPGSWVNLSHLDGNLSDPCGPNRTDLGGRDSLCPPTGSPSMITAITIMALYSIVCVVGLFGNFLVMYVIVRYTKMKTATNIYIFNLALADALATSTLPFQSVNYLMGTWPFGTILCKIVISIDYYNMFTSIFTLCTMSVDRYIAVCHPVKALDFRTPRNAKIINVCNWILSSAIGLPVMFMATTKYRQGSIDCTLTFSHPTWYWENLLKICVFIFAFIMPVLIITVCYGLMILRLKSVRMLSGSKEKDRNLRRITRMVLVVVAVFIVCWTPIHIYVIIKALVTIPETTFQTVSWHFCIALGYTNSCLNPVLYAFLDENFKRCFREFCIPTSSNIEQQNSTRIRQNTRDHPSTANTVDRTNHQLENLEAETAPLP

[13] = NIH/3T3 cell viability loss – mouse embryonic fibroblasts, dry powder, set 2, cytotoxicity control, dose response (AID 493247); assay type: functional, cell-based; conditions: Fibroblast

Compound: Oc1c(Br)cc(Br)cc1/C=N/NC(=S)N[C@H]1CC2C=CC1C2 (stereo not given in full)
IC50 (Albumin): > 94.1 µM (inactive) | EC50 (Streptococcus): 0.448 µM (active) | EC50 (Caspase-3): > 9.47 µM (active) | IC50 (NS3): 7.8 µM (active) | EC50 [1]: 0.109 µM (active) | AC50 (INS1): 2 µM (active) | EC50 (Caspase-7): > 85.3 µM (inactive)

EC50 [2]: 2.11 µM (active)
Compound: COC(=O)[C@@]12CCCCN1[C@H](c1ccc(-c3cccc(Cl)c3)c(OC)c1)[C@H]1C(=O)N(C)C(=O)[C@H]12

Compound: COc1cc(/C=C2\SC(=O)N(CC(=O)Nc3cccc(C)c3)C2=O)cc(Cl)c1OCC(=O)O
IC50 [3]: > 100 µM (inactive) | IC50 [4]: 4.96 µM (active) | IC50 [5]: 3.69 µM (active) | IC50 [6]: 3.63 µM (active) | IC50 [7]: 2.2 µM (active) | IC50 [8]: 17.9 µM (active)

IC50 [9]: 0.0467 µM (active) | IC50 [10]: < 0.0031 µM (active) | IC50 [11]: 0.0675 µM (active) | IC50 [12]: > 32 µM (inactive) | IC50 (Mu-type opioid receptor): 15.1 µM (inactive)
Compound: Cc1ccc(S(=O)(=O)N2CCc3cc(C(=O)NCCN(Cc4ccccc4)C(C)C)ccc3C2)cc1

Compound: CN(Cc1ccccc1)C(=O)C1CCCN(Cc2ccc(C(F)(F)F)cc2)C1 (stereo not given)
AC50 [13]: 61.6 µM (active)
